Series [1] concerns the target T1, serotonin 5-HT3A receptor (Homo sapiens, UniProt P46098).
T1 sequence (P46098 24-478): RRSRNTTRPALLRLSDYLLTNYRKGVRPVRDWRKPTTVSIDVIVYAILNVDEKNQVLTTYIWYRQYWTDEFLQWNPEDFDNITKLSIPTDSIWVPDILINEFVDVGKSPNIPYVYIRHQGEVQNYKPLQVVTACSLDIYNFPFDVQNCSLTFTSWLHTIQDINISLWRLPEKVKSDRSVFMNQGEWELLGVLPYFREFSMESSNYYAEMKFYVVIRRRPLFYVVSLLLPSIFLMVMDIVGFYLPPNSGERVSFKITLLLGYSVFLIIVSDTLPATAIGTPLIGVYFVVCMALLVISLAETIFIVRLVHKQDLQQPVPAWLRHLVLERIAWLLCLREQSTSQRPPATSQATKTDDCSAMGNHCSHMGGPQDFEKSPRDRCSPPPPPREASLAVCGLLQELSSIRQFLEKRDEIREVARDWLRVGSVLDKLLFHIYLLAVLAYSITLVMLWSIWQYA
In words: Assay for 5-HT3A receptor: two-electrode voltage clamp of 5-HT-induced inward current in Xenopus oocytes expressing 5-HT3A receptor. The note with it: inhibition of inward current (I5-HT) induced by 5-HT (1 μM), Xenopus laevis oocytes, from concentration-response curves; for IC50: read-out: IC50 (50% inhibitory concentration); for inhibition: read-out: maximum inhibition value (Vmax). The series is classed as cell-based.

The values that follow come from US20080312253A1, “Pharmaceutical compositions containing pyrazole derivatives for treating as serotonin antagonist” (KOREA INSTITUTE OF SCIENCE AND TECHNOLOGY, priority 2007, published 2008).

For orientation: inhibition means the relative decrease from the control value, in per cent. As usually defined, the melting point is the temperature, or range, at which the solid turns liquid.

As to `Cc1cc(CNCCN2CCN(c3cccc(Cl)c3)CC2)[nH]n1` [Compound 2, 3-{2-[4-(3-Chlorophenyl)piperazin-1-yl]ethyl}aminomethyl-5-methylpyrazole], in series [1], the “Hill coefficient (nH)” value is 1.0 ± 0.1, the IC50 turned out to be 9.6 ± 1.1 µM and the inhibition came to 90.6 ± 2.7%.

On to `Cc1ccc(-c2cc(CNCCN3CCN(c4ccc(Cl)cc4)CC3)nn2C(C)(C)C)cc1` [Compound 9], for which, in series [1], the IC50 was determined as 2.4 ± 0.4 µM and the inhibition was found to be 103 ± 6.5%.

“1-Phenyl-3-{2-[4-(4-chlorobenzhydryl)piperazin-1-yl]ethyl}aminomethyl-5-toluylpyrazole [Compound 13]”: in series [1], the “Hill coefficient (nH)” value was 2.2 ± 0.4, the “maximum inhibition value (Vmax)” value was 73.1 ± 3.1 and the IC50 was 8.2 ± 0.8 µM.

As for `CC(C)Cc1cc(CNCCN2CCN(c3ccc(Cl)cc3)CC2)nn1-c1ccccc1` [Compound 6, 1-Phenyl-3-{2-[4-(4-chlorophenyl)piperazin-1-yl]ethyl}aminomethyl-5-isobutylpyrazole], in series [1], the “Hill coefficient (nH)” value is on record as 1.2 ± 0.1, the IC50 is 2.8 ± 0.2 µM and the inhibition worked out at 103 ± 2.5%.

`Cc1ccc(-c2cc(CNCCN3CCN(c4ccc(Cl)cc4)CC3)nn2-c2ccccc2)cc1` [Compound 12, 1,5-Diphenyl-3-{2-[4-(4-chlorophenyl)piperazin-1-yl]ethyl}aminomethyl-5-toluylpyrazole]: in series [1], the IC50 was determined as 2.2 ± 0.2 µM and the inhibition turned out to be 95.5 ± 3.5%.

Turning to “1-t-Butyl-3-{2-[4-(4-chlorophenyl)piperazin-1-yl]ethyl}aminomethyl-5-propylpyrazole [Compound 4]”, in series [1], the “Hill coefficient (nH)” value amounted to 1.4 ± 0.3, the “maximum inhibition value (Vmax)” value worked out at 97.3 ± 5.6 and the IC50 stood at 1.3 ± 0.3 µM.

Consider “1-Phenyl-3-{2-[4-(4-chlorophenyl)piperazin-1-yl]ethyl}aminomethyl-5-methylpyrazole [Compound 3]”, for which, in series [1], the “Hill coefficient (nH)” value was 1.4 ± 0.1, the “maximum inhibition value (Vmax)” value came out at 98.5 ± 1.2 and the IC50 was found to be 2.5 ± 0.3 µM.

With `CN1[C@@H]2CC[C@H]1C[C@@H](OC(=O)c1cc(Cl)cc(Cl)c1)C2` [MDL72222, reference compound], in series [1], the “Hill coefficient (nH)” value is given as 1.25 ± 0.27 and the inhibition stood at 99.6 ± 7.7%.

As to `CC(C)Cc1cc(CNCCN2CCN(c3ccc(Cl)cc3)CC2)nn1C(C)(C)C` [Compound 7, 1-t-Butyl-3-{2-[4-(4-chlorophenyl)piperazin-1-yl]ethyl}aminomethyl-5-isobutylpyrazole], the melting point lay within 133 to 134 °C. In series [1], the “Hill coefficient (nH)” value turned out to be 1.4 ± 0.4, the IC50 was found to be 3.3 ± 0.9 µM and the inhibition stood at 104 ± 3.5%.

For the molecule `Clc1ccc(N2CCN(CCNCc3cc(-c4ccccc4)n(-c4ccccc4)n3)CC2)cc1` [Compound 11, 1,5-Diphenyl-3-{2-[4-(4-chlorophenyl)piperazin-1-yl]ethyl}aminomethyl-5-pyrazole], in series [1], the “Hill coefficient (nH)” value stood at 1.1 ± 0.1, the IC50 was found to be 3.1 ± 0.3 µM and the inhibition was found to be 101 ± 2.6%.

In the case of `Clc1ccc(N2CCN(CCNCc3cc(-c4ccc(N5CCCCC5)cc4)n(-c4ccccc4)n3)CC2)cc1` [Compound 10, 1-Phenyl-3-{2-[4-(4-chlorophenyl)piperazin-1-yl]ethyl}aminomethyl-5-4-(N-piperidyl)phenylpyrazole], in series [1], the “Hill coefficient (nH)” value came out at 1.9 ± 0.1, the IC50 was determined as 6.4 ± 0.3 µM and the inhibition is 95.9 ± 1.6%.

For the molecule `Clc1cccc(N2CCN(CCNCc3cc(-c4ccco4)n(-c4ccccc4)n3)CC2)c1` [Compound 1, 1-Phenyl-3-{2-[4-(3-chlorophenyl)piperazin-1-yl]ethyl}aminomethyl-5-(2-furyl)pyrazole], in series [1], the “Hill coefficient (nH)” value turned out to be 1.5 ± 0.2, the IC50 amounted to 9.4 ± 0.7 µM and the inhibition came out at 95.9 ± 2.8%.

Consider `Clc1ccc(N2CCN(CCNCc3cc(-c4ccco4)n(-c4ccccc4)n3)CC2)cc1` [Compound 8, 1-Phenyl-3-{2-[4-(4-chlorophenyl)piperazin-1-yl]ethyl}aminomethyl-5-(2-furyl)pyrazole], for which, in series [1], the “Hill coefficient (nH)” value amounted to 2.0 ± 0.2, the IC50 is 4.3 ± 0.3 µM and the inhibition came out at 97.3 ± 2%.

On to `CCCc1cc(CNCCN2CCN(c3ccc(Cl)cc3)CC2)nn1-c1ccccc1` [Compound 5, 1-Phenyl-3-{2-[4-(4-chlorophenyl)piperazin-1-yl]ethyl}aminomethyl-5-propylpyrazole], for which, in series [1], the “Hill coefficient (nH)” value is given as 1.5 ± 0.3, the IC50 stood at 1.3 ± 0.2 µM and the inhibition is 94.8 ± 4.8%.
